The text below walks through data of patent US10610104B2, “Gastrointestinal tract detection methods, devices and systems” (priority 2016, dated 2020).

As a reminder, the Kd is a measure of binding affinity in units of concentration.

Assay [1] concerns inflammatory bowel disease (IBD). The settings on record: numerous murine models; cited from earlier work.
In a further assay the target is cyclophilin (Homo sapiens, UniProt P62937). The settings on record: voclosporin versus cyclosporine A; cited from earlier work.
A further assay deals with human IL-6 (Homo sapiens, UniProt P05231). The following applies: cited from earlier work.
The next assay relates to C. albicans. As to the kind of experiment: OD600 assay under simulated GI conditions, fungal contamination with or without anti-fungal recovery media. It is filed as cell-based. The following applies: TSB containing 2.5 mg/L Amphotericin B; C. albicans 1×10^3 CFU/mL; FaSSIF-V2; 4 hour incubation. On the procedure:
Experiments were performed in order to simulate an ingestible device that contains sterile media that is inoculated with a sample of fluid from the GI tract and incubated in transit. The experiments were designed to evaluate whether the assay could predict total bacterial counts over a dynamic range of 10^3 CFU/mL to 10^7 CFU/mL under a series of different conditions of pH, […], fungal strains, mucin concentrations. The samples were also incubated under conditions of shear forces and temperature that simulate conditions of an ingestible device in transit within the GI tract.
Gram-negative (Escherichia coli ATCC 25922) and Gram-positive (Staphylococcus epidermidis ATCC 12228) bacterial cultures were diluted in a standard growth media (TSB) over a dynamic range of 10^7 CFU/mL to 10^3 CFU/mL. The assay utilized […], under shear (110 rpm) and at body temperature (37° C.) over a 4 hour incubation period to simulate transit of an ingestible device within the GI tract. Experiments were performed under various conditions as indicated including: different pH levels (6.5, 7.0 and 7.8); […]; […] […] Experiments were conducted in quintuplicate. All testing was completed in simulated jejunal fluid (FaSSIF-V2; available from BioRelevant (London, UK) Cat: V2FA501 Lot: 02-1408-07, pH 6.5) using a 50 μL sample volume and a 4 hour incubation period. […]

For assay [2] the following is noted: binding to lipid A, the common moiety of LPS; cited from earlier work.

Sequence of human IL-6 (P05231 30-212): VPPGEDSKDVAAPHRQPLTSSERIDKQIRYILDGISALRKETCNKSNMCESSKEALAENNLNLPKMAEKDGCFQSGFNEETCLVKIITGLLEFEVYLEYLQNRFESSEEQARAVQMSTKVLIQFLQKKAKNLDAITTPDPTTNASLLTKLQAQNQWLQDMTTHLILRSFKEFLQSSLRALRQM
Sequence of cyclophilin (P62937 whole entry): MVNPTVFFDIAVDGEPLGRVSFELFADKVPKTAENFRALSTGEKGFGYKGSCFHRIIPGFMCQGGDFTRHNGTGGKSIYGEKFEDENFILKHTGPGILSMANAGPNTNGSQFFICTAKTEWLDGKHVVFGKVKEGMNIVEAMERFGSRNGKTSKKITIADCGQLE

As to “L-glutamic acid polymer with L-alanine, L-lysine and L-tyrosine, acetate (salt) [Glatiramer acetate]”, the “effect on inflammation and pathological manifestations of IBD” value in assay [1] is “reduce inflammation and ameliorate the pathological manifestations”.
For the molecule `C=C/C=C/C[C@@H](C)[C@@H](O)[C@H]1C(=O)N[C@@H](CC)C(=O)N(C)CC(=O)N(C)[C@@H](CC(C)C)C(=O)N[C@@H](C(C)C)C(=O)N(C)[C@@H](CC(C)C)C(=O)N[C@@H](C)C(=O)N[C@H](C)C(=O)N(C)[C@@H](CC(C)C)C(=O)N(C)[C@@H](CC(C)C)C(=O)N(C)[C@@H](C(C)C)C(=O)N1C` [voclosporin], the “binding affinity for cyclophilin” value on cyclophilin is given as “comparable”.
Consider “siltuximab: a chimeric, human-murine, immunoglobulin (Ig) Gκ mAb that binds and neutralizes human IL-6”, for which the “binds and neutralizes human IL-6” value with human IL-6 is “high affinity and specificity”.
`C[C@@H]1[C@H](O)[C@@H](C)/C=C/C=C/C=C/C=C/C=C/C=C/C=C/[C@H](O[C@@H]2O[C@H](C)[C@@H](O)[C@H](N)[C@@H]2O)C[C@@H]2O[C@](O)(C[C@@H](O)C[C@@H](O)[C@H](O)CC[C@@H](O)C[C@@H](O)CC(=O)O[C@H]1C)C[C@H](O)[C@H]2C(=O)O` [amphotericin B, Amphotericin B]: in the assay on C. albicans, the “background fungal growth (plate counts and optical density)” value is reported as “reduced the background fungal growth”.

B1: Lipopolysaccharide Binding Protein (LBP): Lipopolysaccharide Binding Protein, binds with high affinity to lipid A, the common moiety of LPS (protein, UniProt P18428 26-481, looked up)
Lipopolysaccharide-binding …: ANPGLVARITDKGLQYAAQEGLLALQSELLRITLPDFTGDLRIPHVGRGRYEFHSLNIHSCELLHSALRPVPGQGLSLSISDSSIRVQGRWKVRKSFFKLQGSFDVSVKGISISVNLLLGSESSGRPTVTASSCSSDIADVEVDMSGDLGWLLNLFHNQIESKFQKVLESRICEMIQKSVSSDLQPYLQTLPVTTEIDSFADIDYSLVEAPRATAQMLEVMFKGEIFHRNHRSPVTLLAAVMSLPEEHNKMVYFAISDYVFNTASLVYHEEGYLNFSITDDMIPPDSNIRLTTKSFRPFVPRLARLYPNMNLELQGSVPSAPLLNFSPGNLSVDPYMEIDAFVLLPSSSKEPVFRLSVATNVSATLTFNTSKITGFLKPGKVKVELKESKVGLFNAELLEALLNYYILNTFYPKFNDKLAEGFPLPLLKRVQLYDLGLQIHKDFLFLGANVQYMRV
With B1, the Kd in assay [2] is 1 nM.
